Reference: patent publication US20080319038A1, “PREVENTATIVE OR THERAPEUTIC AGENT FOR ACUTE RENAL FAILURE” (priority 2005, published 2008)

Experiments:
[1] = tested on: ischemia reperfusion mice; experiment: Effect of Fidarestat administration on renal damage in ischemia reperfusion mice; type: in vivo, C57BL/6 mice; settings: for BUN / CK / Creatinine: blood, 3 h ischemia, 24 h reperfusion, Average ± SEM, n = 4
Protocol: Sixteen- to twenty-week-old male C57BL/6 mice (Wild) were used in the experiment. The mice were divided into 4 groups, which were designated as sham-operation group (normal control group), ischemia operation group (ischemia reperfusion control group), ischemia operation+Fidarestat 40 mg/kg administration group (ischemia reperfusion/Fidarestat 40 mg/kg administration group), and ischemia operation+Fidarestat 150 mg/kg administration group (ischemia reperfusion/Fidarestat 150 mg/kg administration group), respectively. 40 or 150 mg/kg/day of Fidarestat was mixed in their diet and administered to the ischemia operation+Fidarestat administration groups 7 days before ischemia operation. Plantar blood flow in these mice was measured with a laser blood flow meter under isoflurane anesthesia, and then the abdomen was incised. The abdominal aorta was exposed under a stereoscopic microscope and clipping was carried out at the portion distal to the renal artery bifurcation. Further, the right common iliac artery was also clipped and the right femoral artery was finally clipped. Thereafter, the abdomen was closed. The time of ischemia onset was set to the time when the femoral artery was clipped. From the time of ischemia onset, plantar blood flow was measured with a laser blood flow meter and the ischemia was confirmed. The clipping was released in order of the right femoral artery, right common iliac artery, and abdominal aorta in 3 hours from the ischemia onset and reperfusion was performed. At the time, the reperfusion status was confirmed with the laser blood flow meter. The reperfusion time was set to the time when the clipping of the aorta was released. The reperfusion was performed for 24 hours and the general condition was observed. Thereafter, heart blood was collected from the right atrium under isoflurane anesthesia. The collected heart blood was mixed with heparin and centrifuged at 3000 g. Then, the supernatant was collected therefrom, which was frozen for preservation at −80 degrees C. to use in a serologic test for CK, BUN, creatinine, and the like.

[2] = tested on: mice with LPS-induced inflammation; experiment: Effect of Fidarestat administration on renal damage in mice with lipopolysaccharide (LPS)-induced inflammation; type: in vivo, CD-1 mice
Protocol: Eight-week-old male CD-1 mice were used in the experiment. The mice were divided into 3 groups of normal control group (drug and LPS non-administration group), LPS control group (drug non-administration/LPS administration group), and LPS/Fidarestat administration group (Fidarestat and LPS administration group). First, 10 mg/kg of Fidarestat (which was prepared with a solubilizing agent solution) was administered into the caudal vein of the Fidarestat administration group and the solubilizing agent solution was administered into the caudal vein of the drug non-administration group. After 5 minutes, Lipopolysaccharides (LPS: Escherichia coli; 0111: B4, Sigma) was prepared with a physiological salt solution, which was administered to the LPS administration group intraperitoneally at a concentration of 2 mg/kg and a physiological salt solution was administered to the LPS non-administration group intraperitoneally. After 24 hours, each of the groups of mice was anesthetized by ether inhalation and blood was collected from the abdominal vein using a heparinized syringe. Then, centrifugation was carried out under the following conditions: at 4 degree C., at 1,000×g, for 10 min. Plasma was then obtained. Blood urea nitrogen (BUN) and creatinine were measured using an autoanalyzer (Hitachi). In this regard, as a solubilizing agent, NMDG (N-methyl-D-glucamine) was used.

[3] = Fidarestat 40 mg/kg/day in diet from 7 days before ischemia
[4] = Fidarestat 150 mg/kg/day in diet from 7 days before ischemia
[5] = plasma, Fidarestat 10 mg/kg caudal vein 5 min before LPS 2 mg/kg i.p., 24 hours after LPS, Average ± SEM, n = 7

NC(=O)[C@@H]1C[C@]2(NC(=O)NC2=O)c2cc(F)ccc2O1 [Fidarestat, (2S,4S)-6-fluoro-2′,5′-dioxospiro[chroman-4,4′-imidazolidine]-2-carboxamide]
BUN [1, 3]: 40 ± 11 mg/dL | CK [1, 3]: 6978 ± 4904 IU/L | Creatinine [1, 3]: 0.12 ± 0.01 mg/dL | BUN [1, 4]: 31 ± 1 mg/dL | CK [1, 4]: 2348 ± 530 IU/L | Creatinine [1, 4]: 0.10 ± 0.01 mg/dL | onset of acute renal failure ([1]; ischemia reperfusion/Fidarestat 40 mg/kg and 150 mg/kg administration groups): completely suppressed | effect on renal function impairment ([2]; model with LPS-induced inflammation, Fidarestat 10 mg/kg i.v.): effective | BUN [2, 5]: 24.3 ± 2.2 mg/dL | Creatinine [2, 5]: 0.067 ± 0.003 mg/dL
